Data: PubChem BioAssay (NCI)
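Compound exposure: 48 hours, 5 concentrations, 96-well plates. At the TGI there is no net growth.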

Assays:
Experiment in all cases: NCI-60 cell line screen, 48 h
[1] = system: UACC-62 melanoma
[2] = system: HT29 colon
[3] = system: MOLT-4 leukemia
[4] = system: OVCAR-3 ovarian
[5] = system: MDA-MB-231 breast
[6] = system: IGROV1 ovarian
[7] = system: LOX IMVI melanoma
[8] = system: MCF7 breast
[9] = system: SF-295 CNS
[10] = system: HCC-2998 colon
[11] = system: MDA-MB-435
[12] = system: BT-549 breast
[13] = system: HCT-116 colon
[14] = system: COLO 205 colon
[15] = system: TK-10 renal
[16] = system: OVCAR-4 ovarian
[17] = system: DU-145 prostate
[18] = system: KM12 colon
[19] = system: NCI-H23 lung
[20] = system: SR leukemia
[21] = system: SNB-19 CNS
[22] = system: CAKI-1 renal
[23] = system: NCI-H226 lung
[24] = system: EKVX NSCLC
[25] = system: M14 melanoma
[26] = system: RXF 393 renal
[27] = system: 786-0 renal
[28] = system: MALME-3M melanoma
[29] = system: RPMI-8226 leukemia
[30] = system: OVCAR-8 ovarian
[31] = system: T-47D breast
[32] = system: UACC-257 melanoma
[33] = system: MDA-N
[34] = system: NCI/ADR-RES ovarian
[35] = system: HL-60(TB) leukemia
[36] = system: HOP-92 NSCLC
[37] = system: NCI-H522 lung
[38] = system: SK-MEL-2 melanoma
[39] = system: K-562 leukemia
[40] = system: SNB-75 CNS
[41] = system: SF-268 CNS
[42] = system: ACHN renal
[43] = system: SN12C renal
[44] = system: NCI-H460 lung
[45] = system: OVCAR-5 ovarian
[46] = system: HCT-15 colon
[47] = system: A498 renal
[48] = system: SW-620 colon
[49] = system: UO-31 renal
[50] = system: A549 NSCLC
[51] = system: HOP-62 NSCLC
[52] = system: SK-OV-3 ovarian
[53] = system: U251 CNS
[54] = system: PC-3 prostate
[55] = system: SF-539 CNS
[56] = system: HS 578T breast
[57] = system: SK-MEL-28 melanoma
[58] = system: SK-MEL-5 melanoma
[59] = system: CCRF-CEM leukemia

CC1CC(C)CN(S(=O)(=O)c2cc(Cl)c(Oc3ccc([N+](=O)[O-])cc3Cl)c(Cl)c2)C1 (stereo not given) was tested, and the TGI [1] was over 100 µM, the TGI [2] was over 100 µM and the TGI [3] was over 100 µM. The TGI [4] was over 100 µM, the TGI [5] was over 100 µM and the TGI [6] was over 100 µM. It also gave a TGI [7] of over 100 µM, a TGI [8] of over 100 µM and a TGI [9] of over 100 µM. The TGI [10] was over 100 µM, the TGI [11] was over 100 µM and the TGI [12] was over 100 µM. For the same molecule, the TGI [13] was over 100 µM, the TGI [14] was over 100 µM and the TGI [15] was over 100 µM. It also gave a TGI [16] of over 100 µM, a TGI [17] of over 100 µM and a TGI [18] of over 100 µM. It also gave a TGI [19] of over 100 µM, a TGI [20] of over 100 µM and a TGI [21] of over 100 µM. The TGI [22] was over 100 µM, the TGI [23] was over 100 µM and the TGI [24] was over 100 µM. For the same molecule, the TGI [25] was over 100 µM, the TGI [26] was over 100 µM and the TGI [27] was over 100 µM. For the same molecule, the TGI [28] was over 100 µM, the TGI [29] was over 100 µM and the TGI [30] was over 100 µM. For the same molecule, the TGI [31] was over 100 µM, the TGI [32] was over 100 µM and the TGI [33] was over 100 µM. For the same molecule, the TGI [34] was over 100 µM, the TGI [35] was over 100 µM and the TGI [36] was over 100 µM. The TGI [37] was over 100 µM, the TGI [38] was over 100 µM and the TGI [39] was over 100 µM. The TGI [40] was over 100 µM, the TGI [41] was over 100 µM and the TGI [42] was over 100 µM. It also gave a TGI [43] of over 100 µM, a TGI [44] of over 100 µM and a TGI [45] of over 100 µM. For the same molecule, the TGI [46] was over 100 µM, the TGI [47] was over 100 µM and the TGI [48] was over 100 µM. It also gave a TGI [49] of over 100 µM, a TGI [50] of over 100 µM and a TGI [51] of over 100 µM. It also gave a TGI [52] of over 100 µM, a TGI [53] of over 100 µM and a TGI [54] of over 100 µM. The TGI [55] was over 100 µM, the TGI [56] was over 100 µM and the TGI [57] was over 100 µM. The TGI [58] was over 100 µM.

Work on CCCCN(C(=O)c1ccccc1)C1CCC(=O)c2[nH]c3ccccc3c21 (stereo not given) yielded a TGI [1] of over 100 µM, a TGI [2] of over 100 µM and a TGI [3] of over 100 µM. For the same molecule, the TGI [4] was over 100 µM, the TGI [5] was over 100 µM and the TGI [6] was over 100 µM. The TGI [7] was over 100 µM, the TGI [8] was over 100 µM and the TGI [9] was over 100 µM. For the same molecule, the TGI [10] was over 100 µM, the TGI [11] was over 100 µM and the TGI [12] was over 100 µM. For the same molecule, the TGI [13] was over 100 µM, the TGI [14] was 48.1 µM and the TGI [15] was over 100 µM. The TGI [16] was over 100 µM, the TGI [17] was over 100 µM and the TGI [18] was over 100 µM. It also gave a TGI [19] of over 100 µM, a TGI [20] of 41.4 µM and a TGI [21] of over 100 µM. It also gave a TGI [22] of 84 µM, a TGI [23] of 93.4 µM and a TGI [24] of over 100 µM. For the same molecule, the TGI [25] was over 100 µM, the TGI [26] was 70 µM and the TGI [59] was over 100 µM. The TGI [27] was over 100 µM, the TGI [28] was over 100 µM and the TGI [29] was 68.8 µM. It also gave a TGI [30] of over 100 µM, a TGI [31] of 89.9 µM and a TGI [32] of over 100 µM. The TGI [33] was over 100 µM, the TGI [34] was over 100 µM and the TGI [35] was 29.6 µM. The TGI [36] was 84.5 µM, the TGI [37] was over 100 µM and the TGI [39] was over 100 µM. For the same molecule, the TGI [40] was 75.2 µM, the TGI [41] was over 100 µM and the TGI [42] was over 100 µM. For the same molecule, the TGI [43] was over 100 µM, the TGI [44] was over 100 µM and the TGI [46] was over 100 µM. The TGI [47] was over 100 µM, the TGI [48] was over 100 µM and the TGI [49] was over 100 µM. The TGI [50] was over 100 µM, the TGI [51] was over 100 µM and the TGI [52] was over 100 µM. It also gave a TGI [53] of over 100 µM, a TGI [54] of over 100 µM and a TGI [55] of over 100 µM. The TGI [56] was 51.2 µM, the TGI [57] was over 100 µM and the TGI [58] was 49.9 µM.
